{"source": "patent US9687554B2", "about": "“Finasteride and minoxidil polymeric nanoparticle its process of preparation, aqueous suspension containing the same, pharmaceutical composition, and its use” (Biolab Sanus Farmaceutica Ltda., priority 2012, dated 2017)", "origin": "cited, not measured here", "test_system": "men aged 18 to 41 years", "conditions": "1 mg daily, end of five years, 1553 men; placebo 75%", "data": [{"compound": "CC(C)(C)NC(=O)[C@H]1CC[C@H]2[C@@H]3CC[C@H]4NC(=O)C=C[C@]4(C)[C@H]3CC[C@]12C", "note": "[finasteride]", "values": [{"measurement": "Patients who developed baldness", "value": 10, "unit": "%"}]}]}
